In ChEMBL document CHEMBL1201862, “PubChem BioAssay data set” (2004):
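Growth conditions: 96-well plates. Treatment: test compound, 48 hours, 5 concentrations. Analysis: linear interpolation between bracketing concentrations; unreached endpoints set to highest concentration. Here, GI50 denotes the concentration required for 50% inhibition of growth.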 Calls of active or inactive are those of the source. Rule as the data show it: active = GI50 up to about 1.1 µM and inactive = higher.

Legend:
Test in all cases: growth of human tumour cells (NCI), 48 h
[1] = tested on: 786-0
[2] = tested on: A498
[3] = tested on: A549
[4] = tested on: ACHN
[5] = tested on: CAKI-1
[6] = tested on: CCRF-CEM
[7] = tested on: COLO 205
[8] = tested on: DMS-114
[9] = tested on: DMS-273
[10] = tested on: EKVX
[11] = tested on: HCC 2998
[12] = tested on: HCT-116
[13] = tested on: HCT-15
[14] = tested on: HL-60
[15] = tested on: HOP-62
[16] = tested on: HT-29
[17] = tested on: IGROV-1
[18] = tested on: K562
[19] = tested on: KM-20L2
[20] = tested on: KM12
[21] = tested on: LOX IMVI
[22] = tested on: M14
[23] = tested on: M19-MEL
[24] = tested on: MOLT-4
[25] = tested on: Malme-3M
[26] = tested on: NCI-H226
[27] = tested on: NCI-H23
[28] = tested on: NCI-H460
[29] = tested on: NCI-H522
[30] = tested on: OVCAR-3
[31] = tested on: OVCAR-4
[32] = tested on: OVCAR-5
[33] = tested on: OVCAR-8
[34] = tested on: RPMI-8226
[35] = tested on: RXF 393
[36] = tested on: SF-268
[37] = tested on: SF-295
[38] = tested on: SF-539
[39] = tested on: SK-MEL-28
[40] = tested on: SK-MEL-2
[41] = tested on: SK-MEL-5
[42] = tested on: SK-OV-3
[43] = tested on: SN12C
[44] = tested on: SNB-19
[45] = tested on: SNB-75
[46] = tested on: SNB-78
[47] = tested on: SR
[48] = tested on: SW-620
[49] = tested on: TK-10
[50] = tested on: U-251
[51] = tested on: UACC-257
[52] = tested on: UACC-62
[53] = tested on: UO-31
[54] = tested on: BT-549
[55] = tested on: DU-145
[56] = tested on: HOP-92
[57] = tested on: Hs-578T
[58] = tested on: MCF7
[59] = tested on: MDA-MB-231
[60] = tested on: MDA-MB-435
[61] = tested on: MDA-N
[62] = tested on: NCI/ADR-RES
[63] = tested on: PC-3
[64] = tested on: T47D
[65] = tested on: LXFL 529
[66] = tested on: DLD-1

Measured: GI50

O=C(/N=c1/[nH]/c(=N/C(=O)c2ccccc2)ss1)c1ccccc1
inactive: [1] 25.5 µM | [2] 23.4 µM | [3] 11.4 µM | [4] 13.8 µM | [5] 30.3 µM | [6] 16 µM | [7] 22.9 µM | [8] 26.7 µM | [9] 23.1 µM | [10] 25.4 µM | [11] 18 µM | [12] 28.8 µM | [14] 14.7 µM | [15] 21.9 µM | [16] 16.6 µM | [17] 6.64 µM | [18] 20.4 µM | [19] 29.5 µM | [20] 27.7 µM | [21] 23.9 µM | [22] 27.9 µM | [23] 33.6 µM | [24] 24.7 µM | [25] 9.89 µM | [26] 38.8 µM | [27] 19.3 µM | [28] 16.6 µM | [29] 5.78 µM | [30] 13.1 µM | [31] 38.1 µM | [32] 31.7 µM | [33] 27.3 µM | [34] 6.35 µM | [35] 29.7 µM | [36] 25.8 µM | [37] 18 µM | [38] 12.9 µM | [39] 23.9 µM | [40] 19.4 µM | [41] 5.11 µM | [42] 34.7 µM | [43] 16.5 µM | [44] 33.5 µM | [45] 38.6 µM | [46] 48.1 µM | [47] 24 µM | [48] 25.5 µM | [49] 26.1 µM | [50] 7.55 µM | [51] 14.6 µM | [52] > 10 µM | [53] 18.5 µM
21.4 µM: [13]

CC(C)(C)N1Cc2ccccc2/C(=C/Sc2ccccc2)C1=O
12.9 µM: [13]
inactive: [1] 10.7 µM | [2] 20 µM | [3] 16.2 µM | [4] 17.9 µM | [54] 6.53 µM | [5] 16.6 µM | [6] 5.25 µM | [7] 18.1 µM | [55] 16.9 µM | [10] 16.8 µM | [11] 18.2 µM | [12] 7.03 µM | [14] 13.5 µM | [15] 17.3 µM | [56] 13.3 µM | [16] 17 µM | [57] 16.7 µM | [17] 10.1 µM | [18] 5.85 µM | [20] 17 µM | [21] 2.64 µM | [22] 8.15 µM | [58] 7.19 µM | [59] 16.5 µM | [60] 7.38 µM | [61] 6.55 µM | [24] 3.21 µM | [25] 13.3 µM | [26] 8.83 µM | [27] 6.84 µM | [28] 14.9 µM | [29] 2.75 µM | [62] 14.1 µM | [30] 12 µM | [31] 7.01 µM | [32] 19.4 µM | [33] 8.11 µM | [63] 12.6 µM | [34] 5.82 µM | [35] 16.2 µM | [36] 2.44 µM | [37] 17.4 µM | [38] 8.57 µM | [39] 17.5 µM | [40] 15.2 µM | [41] 6.9 µM | [42] 17.4 µM | [43] 8.17 µM | [44] 16 µM | [45] 16 µM | [47] 2.64 µM | [48] 7.21 µM | [64] 16.6 µM | [49] 19 µM | [50] 13.6 µM | [51] 14.3 µM | [52] 7.69 µM | [53] 12.3 µM

C=CCN(c1cc(OCc2ccccc2)c2[nH]cc(C)c2c1)S(C)(=O)=O
inactive: [1] 33.8 µM | [2] 29.2 µM | [3] 34.7 µM | [4] 37.6 µM | [54] > 100 µM | [5] 61.7 µM | [6] > 100 µM | [7] > 100 µM | [55] 40 µM | [10] 24.2 µM | [11] > 100 µM | [12] 66.4 µM | [14] > 100 µM | [15] 39 µM | [56] 44 µM | [16] 60.8 µM | [57] 45.8 µM | [17] 88.7 µM | [18] > 100 µM | [20] 51.4 µM | [21] > 100 µM | [22] > 100 µM | [58] 59.7 µM | [59] 44.6 µM | [60] 72.1 µM | [61] 89.7 µM | [24] 33.5 µM | [25] 27.5 µM | [26] 28.7 µM | [27] 87.1 µM | [28] 76.2 µM | [29] 37 µM | [62] 53.1 µM | [30] 25 µM | [31] 34.4 µM | [32] 79.8 µM | [33] 61.9 µM | [63] 49.4 µM | [34] 39.4 µM | [35] 23.1 µM | [36] 46.7 µM | [37] 31.5 µM | [38] 56.2 µM | [39] 48.8 µM | [40] 41.7 µM | [41] 52.4 µM | [42] 37.3 µM | [43] 51.3 µM | [44] 57.9 µM | [45] 19.8 µM | [47] > 100 µM | [48] > 100 µM | [64] 18.8 µM | [49] 92.3 µM | [50] 46.7 µM | [51] 52.7 µM | [52] 22.8 µM | [53] 41.8 µM
> 100 µM: [13]

CC(C)CC(NC(O)[BH2-][N+](C)(C)C)C(=O)NC(Cc1ccccc1)C(=O)N[C@H]1c2ccsc2/C(=N/O)[C@H]1O (stereo partly specified)
inactive: [1] > 100 µM | [2] > 100 µM | [3] > 100 µM | [4] > 100 µM | [54] > 100 µM | [5] > 100 µM | [6] > 100 µM | [7] > 100 µM | [55] > 100 µM | [10] > 100 µM | [11] > 100 µM | [12] > 100 µM | [14] > 100 µM | [15] > 100 µM | [56] > 100 µM | [16] > 100 µM | [57] > 100 µM | [17] > 100 µM | [18] > 100 µM | [20] > 100 µM | [21] > 100 µM | [22] > 100 µM | [58] > 100 µM | [59] > 100 µM | [60] > 100 µM | [61] > 100 µM | [24] > 100 µM | [25] > 100 µM | [26] > 100 µM | [27] > 100 µM | [28] > 100 µM | [29] > 100 µM | [62] > 100 µM | [30] > 100 µM | [31] > 100 µM | [32] > 100 µM | [33] > 100 µM | [63] > 100 µM | [34] > 100 µM | [35] > 100 µM | [36] > 100 µM | [37] > 100 µM | [38] > 100 µM | [39] > 100 µM | [40] > 100 µM | [41] > 100 µM | [42] > 100 µM | [43] > 100 µM | [44] > 100 µM | [45] > 100 µM | [47] > 100 µM | [48] > 100 µM | [64] > 100 µM | [49] > 100 µM | [50] > 100 µM | [51] > 100 µM | [52] > 100 µM | [53] > 100 µM
> 100 µM: [13]

COc1cc(C2c3cc4c(cc3[C@@H](Nc3ccc(C(=O)O)cc3)C3COC(=O)[C@H]23)OCO4)cc(OC)c1O (stereo partly specified)
7.5 µM: [13]
inactive: [3] > 17.5 µM | [5] 5.93 µM | [6] 2.56 µM | [9] 5.65 µM | [10] > 17.5 µM | [12] 14.5 µM | [14] 3.24 µM | [15] 6.11 µM | [56] 4.81 µM | [16] 11.1 µM | [21] 2.42 µM | [65] 5.82 µM | [22] 12.6 µM | [23] 10 µM | [25] 8.55 µM | [26] 4.47 µM | [27] 7.74 µM | [28] 2.01 µM | [30] 14.7 µM | [31] 11 µM | [35] 10.5 µM | [36] 10.8 µM | [37] 8.85 µM | [38] 4.7 µM | [39] > 17.5 µM | [40] 16.6 µM | [41] 9.77 µM | [43] > 17.5 µM | [44] 6.11 µM | [45] 6.58 µM | [46] 5.78 µM | [51] > 17.5 µM | [52] 9.82 µM | [53] > 17.5 µM
active: [24] 0.546 µM

COc1ccc2c3c(c4cc(OC)c(OC)cc4c2c1)C[C@H]1CCCCN1C3 [CRYPTOPLEURINE]
active: [66] 0.005 µM | [12] 0.005 µM | [16] 0.005 µM | [21] 0.005 µM | [58] 0.005 µM | [31] 0.005 µM | [33] 0.005 µM | [42] 0.005 µM | [46] 0.005 µM | [50] 0.005 µM
